Read-outs that look alike come from different tables or passages of the source.
Columns and labels:
cucumber downy mildew [1] = experiment: Indoor comparison with currently available antimicrobial agents, therapeutic effect (Example 12); type: in vivo, Pseudoperonospora cubensis; details: seedling of yellow melon
cucumber downy mildew [2] = experiment: Indoor comparison with currently available antimicrobial agents, protective effect (Example 12); type: in vivo, Pseudoperonospora cubensis; details: seedling of yellow melon
cucumber downy mildew [3] = experiment: Field protection test against cucumber downy mildew (Example 13); type: in vivo, Pseudoperonospora cubensis; set-up: Disease index: scale not given here
Method: Protective action (field test).
Field protection test against cucumber downy mildew was carried out in the farm at a village near Shenyang City. Concentration of the Compound 1 (20% wettable powder) was set at 200, 400 and 600 ppm. Concentration of Previcur (66.5% hydrate ) which was used as the control, was set at 800, 1000 and 1200 ppm. And, a blank control was set separately also. Each treatment was run 4 times. Samples were taken for examination. […] First examination of protective effect was made on April 22. The second examination of protective effect was made on April 29, and the third examinatnion of protective effect was made on May 5.

Downy mildew [4] = experiment: Indoor comparison with Dimethomorph, test for protection (Example 11); details: seedling of yellow melon, 2 - 3 leaf stage
Source text: (§1) Test was divided into test for therapy and test for protection. Concentration of two chemicals (Compound 1 and Dimethomorph) was set at 150 and 100 ppm, and each treatment was run three times. A blank control was set separately. Samples were selected from seedling of yellow melon in the 2 - 3 leaf stage. Method of treatment and study was the same as before.

cucumber downy mildew [5] = experiment: Indoor protection test against cucumber downy mildew (Example 10); details: inoculated 24 hours after treatment, examined a week later
Method: (§2) Concentration of test Compound 1 (content was 9% in emulsion oil) was set at 250, 200, 150, 100 and 75 ppm. Dimethomorph (American Cyanamid) 150 ppm was used as the control. Healthy seedling of yellow melon was selected for use, and test was run three times. For protection test, treatment was carried out on September 17, 1995, and they were inoculated 24 hours later. For the therapeutic test, inoculation was made on September 18, and then they were treated 24 hours later. Examination was made a week later, and results were recorded in 9 grades, and disease index and protection effect were calculated.

cucumber downy mildew [6] = experiment: Indoor therapeutic test against cucumber downy mildew (Example 10); details: treated 24 hours after inoculation, examined a week later
Method: as §2

cucumber downy mildew [7] = experiment: Field therapeutic test against cucumber downy mildew (Example 14); type: in vivo, Pseudoperonospora cubensis; details: three treatments, examined on June 3
Method: Therapeutic effect (field test).
Field therapeutic test of the compound 1 against cucumber downy mildew was carried out in a farm at a village near Shenyang City.
Concentration of the Compound 1 (20% wettable powder) was set at 100, 200 and 300 ppm. Chlor 1500 ppm was used as the control, and blank control was set separately also. Each treatment was repeated three times. First treatment was made on May 13, second treatment was made on May 20, and third treatment was made on May 27, and protective effect was examined on June 3.

Downy mildew [8] = experiment: Indoor comparison with Dimethomorph, test for therapy (Example 11); details: seedling of yellow melon, 2 - 3 leaf stage
Source text: as §1

[9] = tested on: cucumber downy mildew (Pseudoperonospora cubensis); experiment: Test for inhibition of spore germination in cucumber downy mildew; type: cell-based
late blight of tomato = type: in vivo; details: three treatments, examined on June 20, field
[10] = Pseudoperonospora cubensis, 24 h, read-out: % Inhibition of spore

COCC(=O)N(c1c(C)cccc1C)C(C)C(=O)OC (stereo not drawn) [metalaxyl, reference compound]
Therapeutic effect (%)control (cucumber downy mildew [1]; 500 ppm): 40.0% | Protective effect/preventive (%)control (cucumber downy mildew [2]; 500 ppm): 60.0%

COc1ccc(/C(=C\C(=O)N2CCOCC2)c2ccc(F)cc2)cc1OC [Compound 1]
Disease index (cucumber downy mildew [3]; 200 ppm, April 22): 0 | Protective (%)control (cucumber downy mildew [3]; 200 ppm, April 22): 100% | Disease index (cucumber downy mildew [3]; 200 ppm, April 29): 0 | Protective (%)control (cucumber downy mildew [3]; 200 ppm, April 29): 100% | Disease index (cucumber downy mildew [3]; 200 ppm, May 5): 0.03 | Protective (%)control (cucumber downy mildew [3]; 200 ppm, May 5): 97.0% | Disease index (cucumber downy mildew [3]; 400 ppm, April 22): 0 | Protective (%)control (cucumber downy mildew [3]; 400 ppm, April 22): 100% | Disease index (cucumber downy mildew [3]; 400 ppm, April 29): 0 | Protective (%)control (cucumber downy mildew [3]; 400 ppm, April 29): 100% | Disease index (cucumber downy mildew [3]; 400 ppm, May 5): 0 | Protective (%)control (cucumber downy mildew [3]; 400 ppm, May 5): 100% | Disease index (cucumber downy mildew [3]; 600 ppm, April 22): 0 | Protective (%)control (cucumber downy mildew [3]; 600 ppm, April 22): 100% | Disease index (cucumber downy mildew [3]; 600 ppm, April 29): 0 | Protective (%)control (cucumber downy mildew [3]; 600 ppm, April 29): 100% | Disease index (cucumber downy mildew [3]; 600 ppm, May 5): 0 | Protective (%)control (cucumber downy mildew [3]; 600 ppm, May 5): 100% | Therapeutic effect (%)control (cucumber downy mildew [1]; 25 ppm): 0.0% | Therapeutic effect (%)control (cucumber downy mildew [1]; 50 ppm): 40.0% | Therapeutic effect (%)control (cucumber downy mildew [1]; 75 ppm): 60.0% | Therapeutic effect (%)control (cucumber downy mildew [1]; 100 ppm): 75.0% | Therapeutic effect (%)control (cucumber downy mildew [1]; 200 ppm): 90.0% | Protective effect (%)control (Downy mildew [4]; 100 ppm): 93% | Protective effect Disease index (Downy mildew [4]; 100 ppm): 0.07 | Protective effect (%)control (Downy mildew [4]; 150 ppm): 95% | Protective effect Disease index (Downy mildew [4]; 150 ppm): 0.05 | Protection (%)control (cucumber downy mildew [5]; 75 ppm): 92.5% | Protection Disease index (cucumber downy mildew [5]; 75 ppm): 0.03 | Protection (%)control (cucumber downy mildew [5]; 100 ppm): 100% | Protection Disease index (cucumber downy mildew [5]; 100 ppm): 0 | Protection (%)control (cucumber downy mildew [5]; 150 ppm): 100% | Protection Disease index (cucumber downy mildew [5]; 150 ppm): 0 | Protection (%)control (cucumber downy mildew [5]; 200 ppm): 100% | Protection Disease index (cucumber downy mildew [5]; 200 ppm): 0 | Protection (%)control (cucumber downy mildew [5]; 250 ppm): 100% | Protection Disease index (cucumber downy mildew [5]; 250 ppm): 0 | Therapeutic (%)control (cucumber downy mildew [6]; 75 ppm): 78.8% | Therapeutic Disease index (cucumber downy mildew [6]; 75 ppm): 0.11 | Therapeutic (%)control (cucumber downy mildew [6]; 100 ppm): 84.6% | Therapeutic Disease index (cucumber downy mildew [6]; 100 ppm): 0.08 | Therapeutic (%)control (cucumber downy mildew [6]; 150 ppm): 100% | Therapeutic Disease index (cucumber downy mildew [6]; 150 ppm): 0 | Therapeutic (%)control (cucumber downy mildew [6]; 200 ppm): 98.1% | Therapeutic Disease index (cucumber downy mildew [6]; 200 ppm): 0.01 | Therapeutic (%)control (cucumber downy mildew [6]; 250 ppm): 100% | Therapeutic Disease index (cucumber downy mildew [6]; 250 ppm): 0 | Disease index (cucumber downy mildew [7]; 100 ppm): 0.049 | Protective effect (%)control (cucumber downy mildew [7]; 100 ppm): 88.4% | Disease index (cucumber downy mildew [7]; 200 ppm): 0.011 | Protective effect (%)control (cucumber downy mildew [7]; 200 ppm): 97.4% | Disease index (cucumber downy mildew [7]; 300 ppm): 0 | Protective effect (%)control (cucumber downy mildew [7]; 300 ppm): 100% | Protective effect/preventive (%)control (cucumber downy mildew [2]; 25 ppm): 40.0% | Protective effect/preventive (%)control (cucumber downy mildew [2]; 50 ppm): 60.0% | Protective effect/preventive (%)control (cucumber downy mildew [2]; 75 ppm): 75.0% | Protective effect/preventive (%)control (cucumber downy mildew [2]; 100 ppm): 90.0% | Protective effect/preventive (%)control (cucumber downy mildew [2]; 200 ppm): 100.0% | Therapeutic effect (%)control (Downy mildew [8]; 100 ppm): 63% | Therapeutic effect Disease index (Downy mildew [8]; 100 ppm): 0.37 | Therapeutic effect (%)control (Downy mildew [8]; 150 ppm): 74% | Therapeutic effect Disease index (Downy mildew [8]; 150 ppm): 0.26 | % Spore germination ([9]; 25 ppm, 25°C, after 24 hours): 23.1% | Number of spores germinated ([9]; 25 ppm, 25°C, after 24 hours): 198 | Number of ungerminated spores ([9]; 25 ppm, 25°C, after 24 hours): 660 | % Spore germination ([9]; 50 ppm, 25°C, after 24 hours): 4.3% | Number of spores germinated ([9]; 50 ppm, 25°C, after 24 hours): 45 | Number of ungerminated spores ([9]; 50 ppm, 25°C, after 24 hours): 990 | % Spore germination ([9]; 100 ppm, 25°C, after 24 hours): 1.6% | Number of spores germinated ([9]; 100 ppm, 25°C, after 24 hours): 17 | Number of ungerminated spores ([9]; 100 ppm, 25°C, after 24 hours): 1044 | inhibition at 25 ppm [9, 10]: 65.2% | inhibition at 50 ppm [9, 10]: 93.5% | inhibition at 100 ppm [9, 10]: 97.6% | Disease index (late blight of tomato; 200 ppm): 5.56 | Protective (%)control (late blight of tomato; 200 ppm): 80.9% | Disease index (late blight of tomato; 400 ppm): 2.59 | Protective (%)control (late blight of tomato; 400 ppm): 91.1% | Disease index (late blight of tomato; 600 ppm): 2.22 | Protective (%)control (late blight of tomato; 600 ppm): 94.9%

[Al]#[P] [Aluminium phosphide, aluminium phosphide, reference compound]
Therapeutic effect (%)control (cucumber downy mildew [1]; 1000 ppm): 40.0% | Protective effect/preventive (%)control (cucumber downy mildew [2]; 1000 ppm): 75.0%

N#Cc1c(Cl)c(Cl)c(Cl)c(C#N)c1Cl [Chlorothalonil, reference compound]
Therapeutic effect (%)control (cucumber downy mildew [1]; 1000 ppm): 75.0% | Protective effect/preventive (%)control (cucumber downy mildew [2]; 1000 ppm): 90.0%

COc1ccc(C(=CC(=O)N2CCOCC2)c2ccc(Cl)cc2)cc1OC [Dimethomorph, reference compound]
Protective effect (%)control (Downy mildew [4]; 100 ppm): 61% | Protective effect Disease index (Downy mildew [4]; 100 ppm): 0.39 | Protective effect (%)control (Downy mildew [4]; 150 ppm): 79% | Protective effect Disease index (Downy mildew [4]; 150 ppm): 0.21 | Protection (%)control (cucumber downy mildew [5]; 150 ppm): 100% | Protection Disease index (cucumber downy mildew [5]; 150 ppm): 0 | Therapeutic (%)control (cucumber downy mildew [6]; 150 ppm): 63.5% | Therapeutic Disease index (cucumber downy mildew [6]; 150 ppm): 0.19 | Therapeutic effect (%)control (Downy mildew [8]; 100 ppm): 2% | Therapeutic effect Disease index (Downy mildew [8]; 100 ppm): 0.98 | Therapeutic effect (%)control (Downy mildew [8]; 150 ppm): 24% | Therapeutic effect Disease index (Downy mildew [8]; 150 ppm): 0.76 | % Spore germination ([9]; 50 ppm, 25°C, after 24 hours): 38.2% | Number of spores germinated ([9]; 50 ppm, 25°C, after 24 hours): 208 | Number of ungerminated spores ([9]; 50 ppm, 25°C, after 24 hours): 336 | inhibition at 50 ppm ([9]; Pseudoperonospora cubensis, 50 ppm, 25°C, after 24 hours, read-out: % Inhibition of spore): 42.5%

— patent EP0860438B1, “Fluorine-containing diphenyl acrylamide antimicrobial agents” (Shenyang Research Institute of Chemical Industry, priority 1997, dated 1998)
